# Assay results: article PMC10987949, “Inhibition of HIV-1 release by ADAM metalloproteinase inhibitors” (Frontiers in Microbiology, 2024)
# “Also recorded” adds a separate entry of the source.
# Tests used:
# CD62L shedding = test: Soluble CD62L ELISA, anti-CD3/PHA stimulated PBMC or CD4 T cells; assay type: cell-based, human; conditions: for inhibition at 10 µM: Homo sapiens, 10 μM compound, stimulated cells; for inhibition at 10 µM / effect on CD62L shedding / soluble CD62L: ELISA; for effect on CD62L shedding / soluble CD62L: stimulated PBMC or CD4 T cells
# Method in brief: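 Healthy-donor PBMC stimulated with okt3 anti-CD3 (~0.2 μg/mL final) plus IL-2 (20 U/mL final) in presence of compound. Soluble CD62L in supernatants measured by ELISA; viability checked by AO/PI staining.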
# PBMC = PBMC viability (AO/PI staining); assay type: cell-based, human; conditions: for PBMC viability at 24hr post treatment: 10-500 μM of MMP inhibitors for 24hours; for impact on cell viabilities in HIV-1BAL infection: PBMC post infection with HIV-1BAL
# Description: PBMC from de-identified healthy donors were obtained with informed consent from the Department of Transfusion Medicine, National Institutes of Health under Biological reagent Registry RD-14-IX-12 approved by NIH biological safety board. CD8-depleted PBMCs, either stimulated or non-stimulated with 10 μg/mL phytohaemagglutinin (PHA) or anti-CD3 antibody (with or without conjugated beads), were plated at 2×10^6 cells/ml in 48 well plates in RPMI 1640 + 10%FBS (R10) to a final volume of 1 mL in each well. IL-2 was added at a final concentration of 20 U/mL. CD3 antibody okt3 was used at ~0.2 μg/mL final concentration. Compounds were prepared in appropriate solvents according to the manufacturer’s instructions, diluted to working concentrations using RPMI 1640 + 10%FBS (R10), and added to the cell cultures for 6–24 h for CD62L shedding, and 48 h for TNF-α release. Supernatants were collected and assessed using either the CD62L or TNF-α Duo Set ELISA kit according to manufacturer’s instructions (R&D Systems, Inc.). The viability of cells treated with compounds was assessed by acridine orange / propidiom iodide (AO/PI Logosbio catalog F23001) staining using Luna-FL cell counter following the manufacture’s instruction.^2
# recombinant ADAM10 = target: T1, recombinant ADAM10 (Homo sapiens, UniProt O14672); test: Cleavage of fluorogenic CD62L peptide by recombinant ADAM10; assay type: biochemical; conditions: 2 μM compound
# T1 construct: purchased R&D systems, Inc
# T1 sequence (O14672 214-748): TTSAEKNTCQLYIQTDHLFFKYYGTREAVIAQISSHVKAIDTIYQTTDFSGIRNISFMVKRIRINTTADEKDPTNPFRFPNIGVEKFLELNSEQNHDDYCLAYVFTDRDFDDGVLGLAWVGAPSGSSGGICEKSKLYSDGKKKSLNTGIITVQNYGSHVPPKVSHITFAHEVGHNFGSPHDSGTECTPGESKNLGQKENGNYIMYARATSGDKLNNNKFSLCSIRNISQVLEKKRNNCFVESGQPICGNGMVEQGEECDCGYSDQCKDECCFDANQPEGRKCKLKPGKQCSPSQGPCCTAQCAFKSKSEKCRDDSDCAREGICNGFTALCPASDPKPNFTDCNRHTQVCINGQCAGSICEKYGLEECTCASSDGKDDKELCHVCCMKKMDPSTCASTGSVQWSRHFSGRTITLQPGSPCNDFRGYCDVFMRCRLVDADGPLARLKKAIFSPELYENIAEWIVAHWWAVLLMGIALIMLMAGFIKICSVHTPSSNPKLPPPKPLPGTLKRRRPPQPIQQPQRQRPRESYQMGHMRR
# Description: A fluorescence based enzymatic assay was used to measure the cleavage of fluorogenic TNF-α and L-selectin (CD62L) peptides by either recombinant ADAMs or PBMC from healthy donors. The fluorogenic substrate, synthesized by Biomatik^3, was a Dabcyl (4-(4-dimethylaminophenylazo)benzoyl)- and Edans (5-[(2-aminoethyl)amino]naphthalene-1-sulfonic acid)- conjugated 12 amino acid peptide: Dabcyl-[…]-Edans that corresponds to the extracellular membrane proximal region of CD62L. The fluorescence of the Edans group is quenched by the Dabcyl group in the intact substrate and the cleavage of the CD62L substrate peptide results in a fluorescence emission at 490 nm. The cleavage of fluorogenic TNF-α peptide (ES003, R &D systems, Inc) was detected at emission of 405 nm. The cleavage was measured in a kinetic assay every 3 min for 4 h in black 96-well plates using a Synergy_h1 fluorescent plate reader (BioTek) with 340 nm excitation and 490 nm emission wavelengths. For cleavage using recombinant ADAMs, each enzymatic reaction contained 50–200 ng of recombinant ADAM17 or 10 (R&D systems, Inc) mixed with 5–10 μM fluorogenic TNFα peptide ES003 (R&D systems, Inc) or CD62L peptide with or without indicated inhibitors in 100 μL assay buffer of 25 mM Tris at pH 9.0, 2.5 μM ZnCl2, and 0.005% Brij-35 (w/v). For cell-based cleavage of the fluorescent CD62L-peptide substrate, 300,000 PBMC at 2×10^6/ml density were mixed with 10 μM fluorescent CD62L-peptide and various inhibitors in a black 96-well plate in 150 μL culture media (RPMI 1640, 10% FBS, 1% penicillin streptomycin). PBMC were stimulated with anti-CD3 antibody for 2–4 days as described above.
# Supplemental Figure 3. Inhibition of ADAM10 enzymatic activity by 14mb. A) chemical structure of 3-Cl-phenylpyrrolidine tartrate diamide analogs 14m and 15. B)Inhibition of recombinant ADAM10 cleavage of a fluorogenic CD62L peptide substrate in the presence of titrating concentrations of 14mb. The concentration-dependent enzymatic activities are fitted with non-linear regression of normalized inhibition response model. C). Inhibition of ADAM10 enzymatic cleavage of fluorogenic CD62L peptide by various […]
structure (smiles),measurement,setting,value
"CNC(=O)[C@H](Cc1ccccc1)NC(=O)[C@H](CC(C)C)[C@H](CSc1cccs1)C(=O)NO [BB-94, Batimastat]",inhibition at 10 µM,CD62L shedding,> 50%
same,"effect on 3,4-dichloroisocouman enhanced CD62L shedding",CD62L shedding; stimulated PBMC,blocked
same,effect on CD62L shedding / soluble CD62L,CD62L shedding,suppressed CD62L shedding; also recorded: inhibited
same,PBMC viability at 24hr post treatment,PBMC,No significant decrease in the viability
same,impact on cell viabilities in HIV-1BAL infection,PBMC,without significant impact to cell viabilities
same,inhibition of ADAM10 cleavage of CD62L substrate peptide,recombinant ADAM10,indistinguishable with that of fluorogenic peptide CD62L-only without the enzyme; also recorded: completely suppressed
CNC(=O)[C@@H](NC(=O)[C@H](CCCc1ccccc1)[C@H](C)N(O)C=O)C(C)(C)C [GI254023X],inhibition at 10 µM,CD62L shedding,> 50%
same,effect on CD62L shedding / soluble CD62L,CD62L shedding,suppressed CD62L shedding
same,PBMC viability at 24hr post treatment,PBMC,No significant decrease in the viability
same,inhibition of ADAM10 cleavage of CD62L substrate peptide,recombinant ADAM10,completely suppressed
CC1(C)SCCN(S(=O)(=O)c2ccc(Oc3ccncc3)cc2)[C@H]1C(=O)NO [prinomastat],inhibition at 10 µM,CD62L shedding,> 50%
same,effect on CD62L shedding / soluble CD62L,CD62L shedding,suppressed CD62L shedding
same,impact on cell viabilities in HIV-1BAL infection,PBMC,without significant impact to cell viabilities
same,inhibition of ADAM10 cleavage of CD62L substrate peptide,recombinant ADAM10,completely suppressed
